According to patent US20230038360A1, “COMPOSITION FOR THE TREATMENT OF AMYLOID-BETA ASSOCIATED DISEASES” (BASF SE, priority 2019, published 2023):

Test system: C. elegans strain CL4176 expressing amyloid-beta peptide in muscle cells
Assay: Paralysis assay in transgenic C. elegans strain CL4176 expressing human Aβ1-42 peptide in muscle cells
Type: in vivo
Details: 1 mg/ml sodium propionate in nematode growth medium; after 24 hours; Aβ1-42 expression induced by temperature control
Description: The biological model C. elegans was used to study the effects of sodium propionate on amyloid-beta associated pathology. C. elegans has become an excellent and well recognized model for studying neurodegenerative diseases (Zhou et al., 2011; Hekimi et al., 2011; Kaletsky & Murphy, 2010). This nematode contains 302 neuron cells with neurotransmitters and neuropeptides similar to the mammalian nervous system. All the basic functions in the worm such as development, feeding and movement are controlled by the nervous system. The model is particularly useful for studying amyloid-beta associated pathologies, since transgenic strains have been generated able to express the human Aβ1-42 peptide in muscle cells, producing a progressive paralysis in the nematodes as a result of toxic effects (Link, 1995). Therefore, this model using such strains is useful to study substances in view of their ability to reduce β-amyloid peptide cell toxicity.
In the present experiment, the transgenic C. elegans strain CL4176 expressing amyloid-beta peptide in muscle cells was used. The worms were cultured in plates with nematode growth medium (control) or in plates supplemented with different concentrations of sodium propionate (test substance). The expression of Aβ1-42 peptide was induced in the nematodes by temperature control, and the percentage of worms paralyzed was determined at different time points. […]

CCC(=O)[O-].[Na+] [sodium propionate]
number of paralyzed C. elegans compared to the untreated Aβ1-42 peptide expressing C. elegans: significantly lower
